The results in this text go back to patent US10035777B2, “Heterocyclic kinase inhibitors” (priority 2014, dated 2018).

One may read the IC50 as the concentration at which inhibition is half-maximal.

Like-named read-outs stand apart in the source and are kept apart here.

The assay addresses GST-Xa-hAAK1 (Homo sapiens (Human), UniProt Q2M2I8). Description: biochemical. On the procedure: The assays were performed in U-bottom 384-well plates. […] The reactions were initiated by the combination of bacterially expressed, GST-Xa-hAAK1 with substrates and test compounds. The reactions were incubated at room temperature for 3 hours and terminated by adding 60 μl of 35 mM EDTA buffer to each sample. The reactions were analyzed on the Caliper LabChip 3000 (Caliper, Hopkinton, Mass.) by electrophoretic separation of the fluorescent substrate and phosphorylated product. […] Compounds were dissolved at 10 mM in dimethylsulfoxide (DMSO) and evaluated at eleven concentrations. IC50 values were derived by non-linear regression analysis.

The mark [1] stands for this setting: ATP 22 μM, GST-Xa-hAAK1 3.5 nM, room temperature for 3 hours, Caliper LabChip 3000, read-out: AAK1 IC50.

GST-Xa-hAAK1, sequence (Q2M2I8 whole entry): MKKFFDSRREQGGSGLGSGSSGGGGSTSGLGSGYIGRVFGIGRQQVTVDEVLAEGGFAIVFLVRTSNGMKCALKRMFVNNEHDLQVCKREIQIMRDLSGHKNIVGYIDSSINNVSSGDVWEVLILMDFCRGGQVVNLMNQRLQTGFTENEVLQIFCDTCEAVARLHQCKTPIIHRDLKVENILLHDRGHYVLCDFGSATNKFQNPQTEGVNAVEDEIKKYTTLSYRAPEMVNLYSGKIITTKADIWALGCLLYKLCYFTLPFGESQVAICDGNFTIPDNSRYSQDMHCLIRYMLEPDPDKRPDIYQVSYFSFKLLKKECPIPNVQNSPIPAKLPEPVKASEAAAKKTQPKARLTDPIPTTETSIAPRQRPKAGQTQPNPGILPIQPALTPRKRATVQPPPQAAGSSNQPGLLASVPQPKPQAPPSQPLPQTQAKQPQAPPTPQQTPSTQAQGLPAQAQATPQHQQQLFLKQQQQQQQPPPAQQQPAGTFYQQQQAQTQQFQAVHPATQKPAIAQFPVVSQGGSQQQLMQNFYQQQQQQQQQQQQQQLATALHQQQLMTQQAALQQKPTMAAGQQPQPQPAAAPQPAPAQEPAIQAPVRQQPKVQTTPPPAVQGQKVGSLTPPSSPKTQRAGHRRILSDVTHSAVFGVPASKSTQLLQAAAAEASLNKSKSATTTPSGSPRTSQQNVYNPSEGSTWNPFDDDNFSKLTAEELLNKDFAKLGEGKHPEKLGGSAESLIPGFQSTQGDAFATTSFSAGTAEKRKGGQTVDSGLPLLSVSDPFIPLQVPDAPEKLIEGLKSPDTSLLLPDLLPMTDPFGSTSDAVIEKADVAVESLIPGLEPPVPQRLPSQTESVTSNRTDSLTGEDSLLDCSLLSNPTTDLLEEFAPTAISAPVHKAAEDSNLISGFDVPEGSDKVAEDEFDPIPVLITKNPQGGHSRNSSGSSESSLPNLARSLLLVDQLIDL

For the molecule `CC(C)C[C@@H](N)c1nc2ccc(-c3cnco3)cc2n1CCO` [Example 41, (R)-2-(2-(1-amino-3-methylbutyl)-6-(oxazol-5-yl)-1H-benzo[d]imidazol-1-yl)ethanol], under setting [1], the IC50 was determined as 559 nM.

For `CCn1c([C@H](N)CC(C)C)nc2cc(-c3ccncc3)ccc21` [Example 45, (R)-1-(1-ethyl-5-(pyridin-4-yl)-1H-benzo[d]imidazol-2-yl)-3-methylbutan-1-amine], the IC50 under setting [1] is 749 nM.

Take `CC(C)C[C@@H](N)c1nc2cc(-c3ccncc3)ccc2[nH]1` [Example 1, (R)-3-methyl-1-(5-(pyridin-4-yl)-1H-benzo[d]imidazol-2-yl)butan-1-amine]: the IC50 came to 37 nM.

As for `CC(C)(F)CC(N)c1nc2cc(-c3ccncc3)ccc2[nH]1` (stereo not drawn) [Example 76, 3-fluoro-3-methyl-1-(5-(pyridin-4-yl)-1H-benzo[d]imidazol-2-yl)butan-1-amine], the IC50 under setting [1] is 350 nM.

Turning to `CC(C)CC(C)c1nc2cc(-c3ccncc3)ccc2o1` (stereo not drawn) [Example 88, 2-(4-methylpentan-2-yl)-5-(pyridin-4-yl)benzo[d]oxazole], under setting [1], the IC50 came out at 62 nM.

Regarding `COCCn1c([C@H](N)CC(C)C)nc2ccc(-c3ccncc3)cc21` [Example 38, (R)-1-(1-(2-methoxyethyl)-6-(pyridin-4-yl)-1H-benzo[d]imidazol-2-yl)-3-methylbutan-1-amine], under setting [1], the IC50 turned out to be 531 nM.

Regarding `CN[C@H](CC(C)C)c1nc2ccc(-c3cnco3)cc2[nH]1` [Example 101, (R)-N,3-dimethyl-1-(6-(oxazol-5-yl)-1H-benzo[d]imidazol-2-yl) butan-1-amine], the IC50 under setting [1] was determined as 34 nM.

For the molecule `CC(C)C[C@@H](N)c1nc2ccc(-c3ccncc3)cc2n1CCO` [Example 40, (R)-2-(2-(1-amino-3-methylbutyl)-6-(pyridin-4-yl)-1H-benzo[d]imidazol-1-yl)ethanol], under setting [1], the concentration for half-maximal inhibition (IC50) amounted to 271 nM.

Regarding `CC(C)C[C@@H](NC(=O)C(F)(F)F)c1nc2cc(-c3ccncc3)ccc2[nH]1` [Example 80, (R)-2,2,2-trifluoro-N-(3-methyl-1-(5-(pyridin-4-yl)-1H-benzo[d]imidazol-2-yl)butyl)acetamide], the concentration for half-maximal inhibition (IC50) came out at 697 nM.

Turning to `CC(C)CCc1nc2ccc(-c3cnco3)cc2o1` [Example 100, 2-isopentyl-6-(oxazol-5-yl)benzo[d]oxazole], the IC50 is 1020 nM.

On to `c1cc(-c2ccc3oc(CCC4CCCC4)nc3c2)ccn1` [Example 92, 2-(2-cyclopentylethyl)-5-(pyridin-4-yl)benzo[d]oxazole], for which the half-maximal inhibitory concentration (IC50) under setting [1] was found to be 1700 nM.

Take `N[C@@H](c1nc2cc(-c3ccncc3)ccc2[nH]1)C1CCOCC1` [Example 77, (R)-(5-(pyridin-4-yl)-1H-benzo[d]imidazol-2-yl) (tetrahydro-2H-pyran-4-yl) methanamine]: the 50% inhibitory concentration (IC50) is 436 nM.

Regarding `CC(C)CC(C)c1nc2cc(-c3ccncc3)ccc2[nH]1` (stereo not drawn) [Example 58, 2-(4-methylpentan-2-yl)-5-(pyridin-4-yl)-1H-benzo[d]imidazole], the IC50 under setting [1] was determined as 40 nM.

Regarding `CC(C)CC(CN)c1nc2cc(-c3ccncc3)ccc2[nH]1` (stereo not drawn) [Example 67, 4-methyl-2-(5-(pyridin-4-yl)-1H-benzo[d]imidazol-2-yl) pentan-1-amine], the IC50 was determined as 49 nM.

`c1cc(-c2ccc3[nH]c(CC4CCCCC4)nc3c2)ccn1` [Example 72, 2-(cyclohexylmethyl)-5-(pyridin-4-yl)-1H-benzo[d]imidazole]: the IC50 was found to be 108 nM.

With `CC(C)C[C@@H](N)c1nc2cc(F)c(-c3cnco3)cc2[nH]1` [Example 31, (R)-1-(5-fluoro-6-(oxazol-5-yl)-1H-benzo[d]imidazol-2-yl)-3-methylbutan-1-amine], the half-inhibitory concentration (IC50) (read-out: AAK1 IC50) was 32 nM.

For the molecule `CN[C@H](CC(C)C)c1nc2cc(-c3ccnc(NC(C)=O)c3)ccc2[nH]1` [Example 63, (R)-N-(4-(2-(3-methyl-1-(methylamino)butyl)-1H-benzo[d]imidazol-5-yl)pyridin-2-yl)acetamide], the IC50 stood at 14 nM.

As for `CC(C)N1CC(c2nc3ccc(-c4ccncc4)cc3[nH]2)CC1=O` (stereo not drawn) [Example 51, 1-isopropyl-4-(6-(pyridin-4-yl)-1H-benzo[d]imidazol-2-yl)pyrrolidin-2-one], the IC50 came out at 783 nM.

Regarding `COCCn1c([C@H](N)CC(C)C)nc2ccc(-c3cnco3)cc21` [Example 39, (R)-1-(1-(2-methoxyethyl)-6-(oxazol-5-yl)-1H-benzo[d]imidazol-2-yl)-3-methylbutan-1-amine], the IC50 under setting [1] was determined as 6740 nM.

For `COc1cc(-c2ccncc2)cc2[nH]c(CCC(C)C)nc12` [Example 25, 2-isopentyl-4-methoxy-6-(pyridin-4-yl)-1H-benzo[d]imidazole], the half-maximal inhibitory concentration (IC50) under setting [1] turned out to be 380 nM.

As to `COc1cc2[nH]c(CC3CCCC3)nc2cc1-c1cnco1` [Example 69, 5-(2-(cyclopentylmethyl)-6-methoxy-1H-benzo[d]imidazol-5-yl) oxazole], the half-inhibitory concentration (IC50) was 57 nM.

On to `NC(CCC(F)(F)F)c1nc2cc(-c3ccncc3)ccc2o1` (stereo not drawn) [Example 93, 4,4,4-trifluoro-1-(5-(pyridin-4-yl)benzo[d]oxazol-2-yl)butan-1-amine], for which the IC50 under setting [1] came to 136 nM.

Regarding `CN[C@H](CC(C)C)c1nc2cc(-c3ccnc(N(C)C)c3)ccc2[nH]1` [Example 75, (R)-N,N-dimethyl-4-(2-(3-methyl-1-(methylamino)butyl)-1H-benzo[d]imidazol-5-yl) pyridin-2-amine], the IC50 was determined as 244 nM.

For the molecule `NC(CCC(F)(F)F)c1nc2ccc(-c3cnco3)cc2[nH]1` (stereo not drawn) [Example 105, 4,4,4-trifluoro-1-(6-(oxazol-5-yl)-1H-benzo[d]imidazol-2-yl)butan-1-amine], the IC50 under setting [1] is 150 nM.

On to `Cn1nc(C(C)(C)C)cc1-c1nc2ccc(-c3ccncc3)cc2[nH]1` [Example 50, 2-(3-(tert-butyl)-1-methyl-1H-pyrazol-5-yl)-6-(pyridin-4-yl)-1H-benzo[d]imidazole], for which the 50% inhibitory concentration (IC50) is 1730 nM.

Consider `CC(C)C[C@H](N)c1nc2cc(-c3ccncc3)ccc2s1` [Example 97, (S)-3-methyl-1-(5-(pyridin-4-yl)benzo[d]thiazol-2-yl) butan-1-amine], for which the IC50 is 116 nM.

As to `COc1cc(-c2cc(OC)c3[nH]c([C@H](N)CC(C)C)nc3c2)ccn1` [Example 24, (R)-1-(7-methoxy-5-(2-methoxypyridin-4-yl)-1H-benzo[d]imidazol-2-yl)-3-methylbutan-1-amine], the IC50 under setting [1] came out at 1590 nM.

Regarding `COc1cnccc1-c1ccc2[nH]c([C@H](N)CC(C)C)nc2c1` [Example 11, (R)-1-(5-(3-methoxypyridin-4-yl)-1H-benzo[d]imidazol-2-yl)-3-methylbutan-1-amine], the IC50 under setting [1] came out at 93 nM.

On to `CN[C@H](CC(C)C)c1nc2cc(-c3ccnc(N)c3)ccc2[nH]1` [Example 59, (R)-4-(2-(3-methyl-1-(methylamino)butyl)-1H-benzo[d]imidazol-5-yl)pyridin-2-amine], for which, under setting [1], the IC50 was determined as 7 nM.

With `CC(C)C[C@@H](N)c1nc2ccc(-c3ccncc3)cc2n1CC(F)(F)F` [Example 37, (R)-3-methyl-1-(6-(pyridin-4-yl)-1-(2,2,2-trifluoroethyl)-1H-benzo[d]imidazol-2-yl)butan-1-amine], the IC50 is 19 nM.

For `COc1cc2[nH]c(C(N)CC3CCCC3)nc2cc1-c1cnco1` (stereo not drawn) [Example 71, 2-cyclopentyl-1-(6-methoxy-5-(oxazol-5-yl)-1H-benzo[d]imidazol-2-yl)ethanamine], the half-inhibitory concentration (IC50) is 70 nM.

Turning to `CC(C)CCc1nc2cc(-c3ccncc3)ccc2o1` [Example 89, 2-isopentyl-5-(pyridin-4-yl)benzo[d]oxazole], the IC50 under setting [1] is 327 nM.

`CC1CCCC(c2nc3ccc(-c4ccncc4)cc3[nH]2)C1` (stereo not drawn) [Example 81, 2-(3-methylcyclohexyl)-6-(pyridin-4-yl)-1H-benzo[d]imidazole]: the IC50 amounted to 1430 nM.

For `CC(C)CC(C)c1nc2ccc(-c3ccncc3)cc2o1` (stereo not drawn) [Example 87, 2-(4-methylpentan-2-yl)-6-(pyridin-4-yl)benzo[d]oxazole], the IC50 under setting [1] was found to be 92 nM.

Take `c1cc(-c2ccc3oc(CC4CCCC4)nc3c2)ccn1` [Example 90, 2-(cyclopentylmethyl)-5-(pyridin-4-yl)benzo[d]oxazole]: under setting [1], the IC50 came to 818 nM.

Consider `CCn1c([C@H](N)CC(C)C)nc2ccc(-c3cn[nH]c3)cc21` [Example 34, (R)-1-(1-ethyl-6-(1H-pyrazol-4-yl)-1H-benzo[d]imidazol-2-yl)-3-methylbutan-1-amine], for which the 50% inhibitory concentration (IC50) under setting [1] came to 98 nM.

With `N[C@@H](c1nc2cc(-c3ccncc3)ccc2[nH]1)C1CC1` [Example 74, (R)-cyclopropyl (5-(pyridin-4-yl)-1H-benzo[d]imidazol-2-yl)methanamine], the half-maximal inhibitory concentration (IC50) stood at 228 nM.

For the molecule `C/C(=C\C(C)C)c1nc2cc(-c3ccncc3)ccc2o1` [Example 86, (E)-2-(4-methylpent-2-en-2-yl)-5-(pyridin-4-yl)benzo[d]oxazole], the IC50 (read-out: AAK1 IC50) was found to be 2310 nM.

In the case of `COc1cc(-c2cnco2)cc2[nH]c(CCC(C)C)nc12` [Example 26, 5-(2-isopentyl-4-methoxy-1H-benzo[d]imidazol-6-yl)oxazole], the concentration for half-maximal inhibition (IC50) under setting [1] came to 217 nM.

As for `CC(C)C[C@@H](N)c1nc2cc(-c3ccnc(N(C)C)n3)ccc2[nH]1` [Example 14, (R)-4-(2-(1-amino-3-methylbutyl)-1H-benzo[d]imidazol-5-yl)-N,N-dimethylpyrimidin-2-amine], the IC50 under setting [1] turned out to be 198 nM.

For `CC(C)C[C@@H](N)c1nc2cc(-c3ccnc4[nH]ccc34)ccc2[nH]1` [Example 6, (R)-1-(5-(1H-pyrrolo[2,3-b]pyridin-4-yl)-1H-benzo[d]imidazol-2-yl)-3-methylbutan-1-amine], the IC50 was found to be 5 nM.

For the molecule `CN[C@H](CC(C)C)c1nc2cc(-c3ccnnc3)ccc2[nH]1` [Example 109, (R)-N,3-dimethyl-1-(5-(pyridazin-4-yl)-1H-benzo[d]imidazol-2-yl)butan-1-amine], the half-inhibitory concentration (IC50) (read-out: AAK1 IC50) was 428 nM.
